Assays:
[1] = test system: Anopheles gambiae Kisumu-strain; assay: Basic insecticidal activity, topical application method (Test Example 1); format: in vivo; conditions: for 50% Lethal Dose (LD50): female adults, 0.3 μL acetone solution on thoracodorsal region, mortality after 24 hours, probit method; for Relative Efficacy: relative to ethofenprox (=1), from LD50 values
Description: (§1) The basic insecticidal activity of the present compound was examined using a topical application method. Various concentrations of acetone solutions of the present compound were previously prepared. […] After the treatment, the female adult of Cancer Vieja Madara mosquito was moved into a plastic cup (having a diameter of 9 cm and a height of about 4.5 cm), and was fed with 5% sugar water. The mortality after 24 hours was examined. The number of the tested female adults of Cancer Vieja Madara mosquito was 10 heads per each one concentration in four replicate experiments. The 50% lethal dose (the LD50 value) of the present compound was calculated from the test result using probit method. The same experiment was conducted using ethofenprox as a control. The lower 50% lethal dose of a compound means the higher basic insecticidal activity of the compound. The ratio of the LD50 value of the present compound relative to the LD50 value of ethofenprox was calculated to acquire the relative efficacy of the present compound to ethofenprox.

[2] = test system: Anopheles gambiae VK7-strain; assay: Basic insecticidal activity, topical application method, pyrethroid-resistive strain (Test Example 4); format: in vivo; conditions: for 50% Lethal Dose (LD50): pyrethroid-resistive female adults, topical application, mortality after 24 hours; for Relative Efficacy: relative to deltamethrin (=1), from LD50 values
Description: as §1
The basic insecticidal activity of each of the present compound and deltamethrin was examined using the same method as that used in Test Example 1. Here the tested female adults of Cancer Vieja Madara mosquito were pyrethroid-resistive female adults of Cancer Vieja Madara mosquito (Anopheles gambiae VK7-strain), and the number of the tested insects was 10 heads per each one concentration in two replicate experiments. The ratio of the LD50 value of the present compound relative to the LD50 value of deltamethrin was calculated to acquire the relative efficacy of the present compound to deltamethrin.

SMILES | 50% Lethal Dose (LD50) [1] | Relative Efficacy [1] | 50% Lethal Dose (LD50) [2] | Relative Efficacy [2]
CCOc1ccc(C(C)(C)COCc2cccc(Oc3ccccc3)c2)cc1 [Ethofenprox, ethofenprox] | 0.0021 μg/female | 1 | – | –
CC1(C)[C@H](C(=O)O[C@H](C#N)c2cccc(Oc3ccccc3)c2)[C@@H]1C=C(Br)Br [Deltamethrin, deltamethrin] | – | – | 0.00104 μg/female | 1
CCc1ncnc(NCCc2ccc(C(F)(F)F)cc2)c1Cl [The present compound, 5-chloro-4-ethyl-6-[2-(4-trifluoromethylphenyl)ethylamino]pyrimidine] | 0.0094 μg/female | 0.22 | 0.01833 μg/female | 0.05674
